Key:
Format in all cases: in vivo
Conditions in all cases: 1000 g/h, evaluated after 13 days, five point scale
[1] = tested on: Echinochloa crus-galli (ECHCG); assay: Pre-emergence glasshouse herbicide test, Echinochloa crus-galli
[2] = tested on: Ipomoea hederacea (IPOHE); assay: Pre-emergence glasshouse herbicide test, Ipomoea hederacea
[3] = tested on: Amaranthus retoflexus (AMARE); assay: Post-emergence glasshouse herbicide test, Amaranthus retoflexus
[4] = tested on: Amaranthus retoflexus (AMARE); assay: Pre-emergence glasshouse herbicide test, Amaranthus retoflexus
Lolium perenne (LOLPE) [5] = assay: Post-emergence glasshouse herbicide test, Lolium perenne
Solanum nigrum (SOLNI) [6] = assay: Pre-emergence glasshouse herbicide test, Solanum nigrum
Outline: (§1)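 A spray solution in acetone/water (50:50) with 0.5% Tween 20 delivered 1000 g/h to soil-sown plants at day 1 or day 8 after sowing. After 13 days of glasshouse growth with twice-daily watering, percentage damage was scored in five bands.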

Solanum nigrum (SOLNI) [7] = assay: Post-emergence glasshouse herbicide test, Solanum nigrum
Outline: as §1

Lolium perenne (LOLPE) [8] = assay: Pre-emergence glasshouse herbicide test, Lolium perenne
[9] = tested on: Ipomoea hederacea (IPOHE); assay: Post-emergence glasshouse herbicide test, Ipomoea hederacea
[10] = tested on: Echinochloa crus-galli (ECHCG); assay: Post-emergence glasshouse herbicide test, Echinochloa crus-galli
Setaria faberi (SETFA) [11] = assay: Post-emergence glasshouse herbicide test, Setaria faberi
Setaria faberi (SETFA) [12] = assay: Pre-emergence glasshouse herbicide test, Setaria faberi

Row | SMILES | percentage damage caused to the plant, PRE Application ECHCG [1] | percentage damage caused to the plant, PRE Application IPOHE [2] | percentage damage caused to the plant, POST Application AMARE [3] | percentage damage caused to the plant, PRE Application AMARE [4] | percentage damage caused to the plant, POST Application LOLPE (Lolium perenne (LOLPE) [5]) | percentage damage caused to the plant, PRE Application SOLNI (Solanum nigrum (SOLNI) [6]) | percentage damage caused to the plant, POST Application SOLNI (Solanum nigrum (SOLNI) [7]) | percentage damage caused to the plant, PRE Application LOLPE (Lolium perenne (LOLPE) [8]) | percentage damage caused to the plant, POST Application IPOHE [9] | percentage damage caused to the plant, POST Application ECHCG [10] | percentage damage caused to the plant, POST Application SETFA (Setaria faberi (SETFA) [11]) | percentage damage caused to the plant, PRE Application SETFA (Setaria faberi (SETFA) [12])
1 | CCn1nnnc1NC(=O)c1nn2cnn(-c3ccc(C)cc3C)c2nc1=O [Compound 1.045] | 5 (5=80-100%) | 5 (5=80-100%) | 5 (5=80-100%) | 5 (5=80-100%) | 5 (5=80-100%) | 5 (5=80-100%) | 5 (5=80-100%) | 5 (5=80-100%) | 5 (5=80-100%) | 5 (5=80-100%) | 5 (5=80-100%) | 4 (4=60-79%)
2 | Cn1ncnc1NC(=O)c1nn2cnn(-c3ccc(F)cc3)c2nc1=O [Compound 2.001] | 5 (5=80-100%) | 4 (4=60-79%) | 5 (5=80-100%) | 5 (5=80-100%) | 4 (4=60-79%) | 5 (5=80-100%) | 5 (5=80-100%) | 3 (3=40-59%) | 5 (5=80-100%) | 4 (4=60-79%) | 5 (5=80-100%) | 5 (5=80-100%)
3 | Cn1cnnc1NC(=O)c1nn2cnn(-c3ccc(F)cc3)c2nc1=O [Compound 3.001] | 1 (1=0-19%) | 1 (1=0-19%) | 3 (3=40-59%) | 3 (3=40-59%) | 1 (1=0-19%) | 1 (1=0-19%) | 5 (5=80-100%) | 1 (1=0-19%) | 1 (1=0-19%) | 1 (1=0-19%) | 1 (1=0-19%) | 1 (1=0-19%)
4 | O=C1CCCC(=O)C1C(=O)c1nn2cnn(-c3ccc(F)cc3)c2nc1=O [Compound 4.002] | 5 (5=80-100%) | 5 (5=80-100%) | 5 (5=80-100%) | 5 (5=80-100%) | 5 (5=80-100%) | 5 (5=80-100%) | 5 (5=80-100%) | 4 (4=60-79%) | 5 (5=80-100%) | 5 (5=80-100%) | 5 (5=80-100%) | 5 (5=80-100%)
5 | COc1cccc(-n2ncn3nc(C(=O)C4C(=O)CCCC4=O)c(=O)nc23)c1 [Compound 4.010] | 5 (5=80-100%) | 5 (5=80-100%) | 5 (5=80-100%) | 5 (5=80-100%) | 4 (4=60-79%) | 5 (5=80-100%) | 5 (5=80-100%) | 5 (5=80-100%) | 5 (5=80-100%) | 5 (5=80-100%) | 5 (5=80-100%) | 5 (5=80-100%)

Reference: US10125138B2, “Triazolotriazinone derivatives having activity a s herbicides” (Syngenta Participations AG, priority 2015, dated 2018)
